Laboratory results reported in paper PMC6353875, “The EZH2 SANT1 domain is a histone reader providing sensitivity to the modification state of the H4 tail” (Scientific Reports, 2019).
“Also recorded” adds a separate entry of the source.

Assays:
[1] = biological target: T1, EZH2 SRM-SANT1 (residues 141–251) (Homo sapiens, UniProt Q15910); experiment: NMR titration (1H-15N HSQC) of SRM-SANT1 with histone peptides; assay type: binding; settings: for effect of H4K16 acetylation on interaction/binding (NMR): 1H-15N HSQC titration of SRM-SANT1 with H4K16ac(1–21); for chemical shift perturbations (CSPs) upon peptide addition: 1H-15N HSQC overlay, 25 °C, 0.05–0.10 mM 15N-SRM-SANT1, increasing concentrations of peptide
T1 construct: All additional studies were performed with the SRM-SANT1 construct containing residues 141–251; GST (N, cleaved yes); made in house; host or cells: E. coli Rosetta2 (DE3) pLysS
T1 sequence (Q15910 141-251): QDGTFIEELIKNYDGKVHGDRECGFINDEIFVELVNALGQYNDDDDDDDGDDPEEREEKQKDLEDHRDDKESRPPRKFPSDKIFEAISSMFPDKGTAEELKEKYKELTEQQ
Text: (§1) The complete human EZH2 cDNA was obtained from OpenBiosystems (GE Healthcare, Accession #:BC010858). EZH2 SANT1 (residues 159–251) and SRM-SANT1 (residues 141–251) were subcloned into a pDEST15 (N-terminal GST-tag) expression vector using the Gateway Recombination cloning method (Invitrogen, ThermoScientific) with a PreScission Protease cleavage site engineered between the GST-tag and the N-terminus of EZH2 SRM-SANT1. Mutants were generated in the 141–251 construct using site-directed mutagenesis (Q5 mutagenesis kit, New England Biolabs).
(§2) For purification, cell pellets were thawed on ice and lysed by emulsiflex in a lysis buffer containing 150 mM NaCl, 50 mM Tris (pH 6.5), 3 mM DTT, 0.1% Triton X-100 and DNaseI. Lysate was cleared at 18,000 g for 1 hour at 4 °C. The soluble supernatant was incubated with glutathione agarose resin (ThermoFisher Scientific) and washed extensively with a buffer containing 900 mM NaCl, 50 mM Tris (pH 6.5) and 3 mM DTT. The GST-tag was cleaved by incubation with PreScission Protease overnight and SRM-SANT1 was further purified by FPLC using […] over a Source15S column and size exclusion chromatography over a superdex 75 column. The final buffer contained 150 mM NaCl, 50 mM Tris (pH 6.5), 3 mM DTT, with or without 5 mM EDTA.
Biotinylated histone H4K16ac (1–21, AS-64847-1) was obtained from Anaspec. All histone peptides were dissolved in H2O at a concentration of 20 mM, and the pH adjusted to ~7.0. DNA oligos were obtained from IDT. The DNA was annealed by mixing equimolar amounts of single stranded oligos. DNA was heated to 95 °C for 10 minutes before allowing to cool overnight. The annealed DNA was further purified by size exclusion chromatography over a superdex 75 column in a buffer containing 150 mM NaCl, 50 mM Tris (pH 6.5), 3 mM DTT, with 5 mM EDTA. Titrations were performed by collecting ^15N-HSQC spectra on 0.05–0.10 mM ^15N-EZH2 SRM-SANT1 while titrating in increasing concentrations of the respective ligands. Titration experiments were performed at 25 °C on a Bruker Avance II 800 MHz NMR spectrometer equipped with a 5 mm triple resonance cryoprobe. Data was processed and analyzed using NMRPipe and CcpNmr[53],[54].
Kd values were determined for all individual residues with significant Δδ in each individual titration.

[2] = tested on: SRM-SANT1; experiment: Biotinylated histone peptide pulldown; assay type: binding, human; settings: for effect of modification on SRM-SANT1 binding (pulldown): 1 μg SRM-SANT1 with 1 μg Biotin-tagged H4 peptide, overnight 4 °C, 150 mM NaCl, 50 mM Tris (pH 6.5), 3 mM DTT, streptavidin resin, coomassie, ImageJ, triplicate, vs corresponding unmodified peptide, p-value < 0.05; for effect of H4 modification on binding of SANT1 to H4 (abstract summary): summary statement in abstract
Text: as §1, §2
Biotinylated unmodified histone H4 (1–23, SKU:12-0029), unmodified H4 (11–27, SKU:12-0035), H4K16ac (1–23, SKU:12-0033), H4K20ac (1–24, SKU:12-0052) and H4K20me3 (11–27, SKU:12-0038) peptides were obtained from EpiCypher. 1 μg of purified SRM-SANT1 was incubated with 1 μg of Biotin-tagged H4 peptides unmodified or containing single modifications. Reactions were incubated overnight rocking end over end at 4 °C in a binding buffer containing 150 mM NaCl, 50 mM Tris (pH 6.5), 3 mM DTT. Streptavidin sepharose resin (25 μL of 50% slurry, GE Life Sciences) was added to each reaction and rocked end over end at 4 °C for two hours. The reactions were then spun at 2500 × g, supernatant decanted and beads washed with 500 μL of the binding buffer four times. After the final wash, beads were resuspended in 5x SDS loading dye, ran on a 4–20% gradient gel and visualized using coomassie staining. Gels were imaged using an ImageQuant LAS 4000 imager. Quantification of triplicate pull down experiments was performed using ImageJ[59].

effect of H4 modification on binding of SANT1 to H4 (abstract summary) [2] | Substance | effect of modification on SRM-SANT1 binding (pulldown) [2] | chemical shift perturbations (CSPs) upon peptide addition [1] | other results
 | H4K16ac(1–21): Biotinylated histone H4K16ac (1–21, AS-64847-1), obtained from Anaspec; NMR titration |  |  | effect of H4K16 acetylation on interaction/binding (NMR) [1]: abrogates binding; effect of H4K16 acetylation on interaction/binding (NMR) ([1]; listed as H4K16ac peptide): substantially abrogates interaction with the H4 tail
abrogate binding of SANT1 to H4 | H4K20ac: H4K20ac (1–24, SKU:12-0052), biotinylated peptide from EpiCypher | decreased binding, though not statistically significantly |  | 
abrogate binding of SANT1 to H4 | H4K16ac: H4K16ac (1–23, SKU:12-0033), biotinylated peptide from EpiCypher; pulldown | significant decreases in SRM-SANT1 binding |  | 
 | H4(1–10): unmodified histone H4 (1–10), custom synthesized by GenScript (SGRGKGGKGL) |  | very minor CSPs throughout SANT1, indicative of non-specific interactions | 
 | H4(11–21): unmodified histone H4 (11–21), custom synthesized by GenScript |  | confirms binding to the basic patch of H4; also recorded: very similar CSPs as was observed for H4(1–21) | fold weaker binding (Kd) than H4 tail (1–21) ([1]; ratio of Kd to that of H4 (1–21)): ~ 2 x
abrogate binding of SANT1 to H4 | H4K20me3: H4K20me3 (11–27, SKU:12-0038), biotinylated peptide from EpiCypher | significant decreases in SRM-SANT1 binding |  | 
